Several values for one entry are separate records, joined by “and”; a condition that tells them apart may be missing. Equal entries are not always repeated.
Experiment: Rat PK study #3 (ABBV-744 IV 1 mg/kg and PO 5 mg/kg)
Assay type: in vivo, SD rats
Set-up: Tmax: unit: h
Details: for concentration at 0.033 h: male, Sprague-Dawley, rat, plasma, iv
Method: For the third rat pharmacokinetic study, the pharmacokinetics of ABBV-744 were assessed in male SD rats for comparison to Compound A. ABBV-744 was prepared in a formulation of 5% DMSO, 40% PEG-400, and 55% Milli-Q water (see Table 2D for formulation) and delivered to animals orally (PO) at a dose of 5 mg/kg, or intravenously (IV) at a dose of 1 mg/kg. Animals in each group (n=3) were then monitored over a 24-hour period.
Blood samples (~0.2 mL) were collected according to a schedule (IV administration: 0.033, 0.083, 0.25, 0.5, 1, 2, 4, and 8 h following the initial dosing; PO administration: 0.083, 0.25, 0.5, 1, 2, 4, 8, and 24 h following the initial dosing) by jugular vein by cannulation except for the dosing vein (for IV group), and EDTA-K2 was used as anticoagulant. Within 30 minutes of collection, the samples were centrifuged at approximately 4000 times g-force for 5 minutes at 4° C. to obtain blood plasma. The plasma samples were immediately divided into two aliquots (~75 µL each), transferred to a cryogenic vial, and stored in a freezer at −75±15° C. prior to analysis.
The concentration of ABBV-744 in plasma samples was determined by liquid chromatography-mass spectrometry (LC-MS/MS) using a Shimadzu HPLC(DGU-405; LC-40D XS CN; SIL-40C XSCN; Plate Changer CN; CTO-40C CN; and CBM-40 CN) and an AB API 5500+LC/MS/MS instrument. Samples were analyzed on an Agilent Poroshell Bonus RP 2.7 μm (50×2.1 mm) column. Solution A in the mobile phase was 95% water (0.1% formic acid) and solution B was 95% acetonitrile in water (0.1% formic acid), injection volume was 6 μL, and flow rate was 0.6 mL/min.
To prepare samples for analysis, serial concentrations were prepared by diluting the stock solution of analyte with a 50% acetonitrile in water solution. 5 μL working solutions (5, 10, 20, 50, 100, 500, 1000, 5000, and 10000 ng/mL) were added to 50 μL of the blank SD rat plasma to achieve calibration standards of ~0.5 to 1000 ng/ml (0.5, 1, 2, 5, 10, 50, 100, 500, and 1000 ng/ml) in a total volume of 55 μL. Five quality control samples at 1 ng/ml, 2 ng/ml, 5 ng/ml, 50 ng/mL, and 800 ng/ml for plasma were prepared independently of those used for the calibration curves. These QC samples were prepared on the day of analysis in the same way as calibration standards.
55 μL of standards, 55 μL of QC samples and 55 μL of unknown samples (50 μL of unknown rat plasma with 5 µL of blank solution) were added to 200 µL of acetonitrile containing IS mixture (verapamil) for precipitating protein respectively. The samples were then vortexed for 30 s. After centrifugation at 4° C., 3900 rpm for 15 min, the supernatant was diluted 3 times with water. 6 μL of diluted supernatant was injected into the LC/MS/MS system for quantitative analysis.

[1] = SD rats, IV 1 mg/kg, DMSO/PEG-400/Milli-Q water formulation, individual animals, 1 mg/kg
[2] = SD rats, IV 1 mg/kg, DMSO/PEG-400/Milli-Q water formulation, mean of 3 animals
[3] = SD rats, PO 5 mg/kg, DMSO/PEG-400/Milli-Q water formulation, individual animals, 5 mg/kg

## CCNC(=O)c1cc2c(-c3cc(C(C)(C)O)ccc3Oc3c(C)cc(F)cc3C)cn(C)c(=O)c2[nH]1 [ABBV-744]
5 mg/kg dose
  exposure above the free EC50 BD2 BRD4: minimal
IV 1 mg/kg and PO 5 mg/kg
  Clinical observations: No clinical observations were noted
SD rats, IV 1 mg/kg, DMSO/PEG-400/Milli-Q water formulation, 0.033 h, individual animals, 1 mg/kg
  Plasma Concentration: 484 ng/mL and 489 ng/mL
SD rats, IV 1 mg/kg, DMSO/PEG-400/Milli-Q water formulation, 0.083 h, individual animals, 1 mg/kg
  Plasma Concentration: 308 ng/mL and 353 ng/mL
SD rats, IV 1 mg/kg, DMSO/PEG-400/Milli-Q water formulation, 0.25 h, individual animals, 1 mg/kg
  Plasma Concentration: 267 ng/mL and 289 ng/mL
SD rats, IV 1 mg/kg, DMSO/PEG-400/Milli-Q water formulation, 0.5 h, individual animals, 1 mg/kg
  Plasma Concentration: 217 ng/mL and 202 ng/mL
SD rats, IV 1 mg/kg, DMSO/PEG-400/Milli-Q water formulation, 1 h, individual animals, 1 mg/kg
  Plasma Concentration: 147 ng/mL and 158 ng/mL
SD rats, IV 1 mg/kg, DMSO/PEG-400/Milli-Q water formulation, 2 h, individual animals, 1 mg/kg
  Plasma Concentration: 116 ng/mL and 110 ng/mL
SD rats, IV 1 mg/kg, DMSO/PEG-400/Milli-Q water formulation, 4 h, individual animals, 1 mg/kg
  Plasma Concentration: 55.9 ng/mL and 54.8 ng/mL
SD rats, IV 1 mg/kg, DMSO/PEG-400/Milli-Q water formulation, 8 h, individual animals, 1 mg/kg
  Plasma Concentration: 18.3 ng/mL and 15.0 ng/mL
[1]
  AUCInf: 750 ng·h/mL and 728 ng·h/mL
  AUC_%Extrap_obs: 5.41% and 8.03% and 6.23%
  AUClast: 690 ng·h/mL and 683 ng·h/mL
  C0: 652 ng/mL and 606 ng/mL
  Cl_obs: 24.9 mL/min/kg and 22.2 mL/min/kg and 22.9 mL/min/kg
  MRTInf_obs: 2.88 h and 2.61 h
  T1/2: 2.28 h and 2.09 h
  Vss_obs: 3.69 L/kg and 3.84 L/kg and 3.59 L/kg
[2]
  AUC_%Extrap_obs: 6.56%
  Cl_obs: 23.3 mL/min/kg
  Vss_obs: 3.71 L/kg
SD rats, PO 5 mg/kg, DMSO/PEG-400/Milli-Q water formulation, 0.083 h, individual animals, 5 mg/kg
  Plasma Concentration: 0.00 ng/mL and 1.03 ng/mL and 3.81 ng/mL
SD rats, PO 5 mg/kg, DMSO/PEG-400/Milli-Q water formulation, 0.25 h, individual animals, 5 mg/kg
  Plasma Concentration: 2.95 ng/mL and 6.42 ng/mL and 48.5 ng/mL
SD rats, PO 5 mg/kg, DMSO/PEG-400/Milli-Q water formulation, 0.5 h, individual animals, 5 mg/kg
  Plasma Concentration: 7.91 ng/mL and 21.1 ng/mL and 100 ng/mL
SD rats, PO 5 mg/kg, DMSO/PEG-400/Milli-Q water formulation, 1 h, individual animals, 5 mg/kg
  Plasma Concentration: 16.7 ng/mL and 41.0 ng/mL and 118 ng/mL
SD rats, PO 5 mg/kg, DMSO/PEG-400/Milli-Q water formulation, 2 h, individual animals, 5 mg/kg
  Plasma Concentration: 31.9 ng/mL and 78.0 ng/mL and 157 ng/mL
SD rats, PO 5 mg/kg, DMSO/PEG-400/Milli-Q water formulation, 4 h, individual animals, 5 mg/kg
  Plasma Concentration: 40.6 ng/mL and 101 ng/mL and 239 ng/mL
SD rats, PO 5 mg/kg, DMSO/PEG-400/Milli-Q water formulation, 8 h, individual animals, 5 mg/kg
  Plasma Concentration: 54.6 ng/mL and 70.6 ng/mL and 214 ng/mL
SD rats, PO 5 mg/kg, DMSO/PEG-400/Milli-Q water formulation, 24 h, individual animals, 5 mg/kg
  Plasma Concentration: 0.909 ng/mL and 1.09 ng/mL and 4.52 ng/mL
[3]
  AUClast: 739 ng·h/mL and 1175 ng·h/mL and 3265 ng·h/mL
  Cmax: 54.6 ng/mL and 101 ng/mL and 239 ng/mL
  F: 22.1% and 35.2% and 97.7%
  Tmax: 4.00 h
SD rats, PO 5 mg/kg, DMSO/PEG-400/Milli-Q water formulation, mean of 3 animals
  F: 51.7%
1 mg/kg, SD rats, IV 1 mg/kg, DMSO/PEG-400/Milli-Q water formulation, 0.033 h, individual animals
  concentration at 0.033 h: 475 ng/mL
1 mg/kg, SD rats, IV 1 mg/kg, DMSO/PEG-400/Milli-Q water formulation, 0.033 h, mean of 3 animals
  concentration at 0.033 h: 483 ng/mL
